Reference: US9271978B2 (Zenith Epigenetics Corp., priority 2012, dated 2016)

Legend:
[1] = target: T1, second bromodomain of Brd2 (BRD2(2)) (Homo sapiens, UniProt P25440); test: Inhibition of tetra-acetylated histone H4 binding to Brd2 bromodomain 2 (TR-FRET); parameters: key: Active: Compounds with an IC50 value less than 30 μM were deemed to be active.; Not Active: Compounds with an IC50 value less than 30 μM were deemed to be active; conditions: tetra-acetylated histone H4 peptide, active = IC50 <30 μM
T1 construct: made in house; host or cells: E. coli BL21 (DE3)
Method in brief: (§1)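 IC50 values come from dose-response curves of the 665 nm to 620 nm TR-FRET signal decrease, measured after 2 h at room temperature. Reactions contained 200 nM E. coli-expressed His-tagged bromodomain, 25-50 nM biotinylated tetra-acetylated H4 peptide, Eu-streptavidin plus XL665 anti-His antibody, with 30 mM HEPES pH 7.4, 320 mM KF and 0.2% DMSO.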

[2] = target: T2, Brd4 bromodomain 1 (BRD4(1)) (Homo sapiens, UniProt O60885); test: Inhibition of tetra-acetylated histone H4 binding to Brd4 bromodomain 1 (TR-FRET); parameters: key: Active: Compounds with an IC50 value less than 30 μM were deemed to be active.; Not Active: Compounds with an IC50 value less than 30 μM were deemed to be active; conditions: tetra-acetylated histone H4 peptide, active = IC50 <30 μM
T2 construct: Illustrative results with the first bromodomain of Brd4; made in house; host or cells: E. coli BL21 (DE3)
Method in brief: as §1

hMCP-1 mRNA = test: Inhibition of hMCP-1 mRNA transcription in human peripheral blood mononuclear cells; format: cell-based; parameters: key: Active: Compounds with an IC50 value less than 30 μM were deemed to be active.; Not Active: Compounds with an IC50 value less than 30 μM were deemed to be active; conditions: 3 h
Procedure: In this example, hMCP-1 mRNA in human peripheral blood mononuclear cells was quantitated to measure the transcriptional inhibition of hMCP-1 when treated with a compound of the present disclosure.
Human Peripheral Blood Mononuclear Cells were plated (1.0×10^5 cells per well) in a 96-well plate in 45 μL RPMI-1640 containing 10% FBS and penicillin/streptomycin. The cells were treated with the test compound (45 μL at 2× concentration), and then the cells were incubated at 37° C. for 3 h before the cells were harvested. At time of harvest, cells were transferred to V-bottom plates and centrifuged (800 rpm, 5 min). Spent media was removed and cell lysis solution (70 μL) was added the cells in each well and incubated for 5-10 min at room temperature, to allow for complete cell lysis and detachment. mRNA was then prepared using the “mRNA Catcher PLUS plate” (Invitrogen), according to the protocol supplied. After the last wash, as much wash buffer as possible was aspirated without allowing the wells to dry. Elution buffer (E3, 70 μL) was then added to each well. mRNA was then eluted by incubating the mRNA Catcher PLUS plate with Elution Buffer for 5 min at 68° C. and then immediately placing the plate on ice.
The eluted mRNA isolated was then used in a one-step quantitative real-time PCR reaction, using components of the Ultra Sense Kit together with Applied Biosystems primer-probe mixes. Real-time PCR data was analyzed, normalizing the Ct values for hMCP-1 to an internal control, prior to determining the fold induction of each unknown sample, relative to the control.

IL-6 and IL-17 cytokines = test: In vivo efficacy in mouse endotoxemia model; conditions: C57/B16 mice, oral 75 mg/kg, inhibition in IL-6 and IL-17 post 4-h LPS challenge 0.5 mg/kg i.p.
Procedure: Sub lethal doses of Endotoxin (E. Coli bacterial lipopolysaccharide) were administered to animals to produce a generalized inflammatory response which was monitored by increases in secreted cytokines. Compounds were administered to C57/B16 mice orally at 75 mg/kg dose to evaluate inhibition in IL-6 and IL-17 cytokines post 4-h challenge with lipopolysaccharide (LPS) at 0.5 mg/kg dose intraperitoneally.

hIL-17 mRNA = test: Inhibition of hIL-17 mRNA transcription in human peripheral blood mononuclear cells; format: cell-based; parameters: key: Active: Compounds with an IC50 value less than 30 μM were deemed to be active.; Not Active: Compounds with an IC50 value less than 30 μM were deemed to be active; conditions: OKT3 antibody stimulation
Procedure: In this example, hIL-17 mRNA in human peripheral blood mononuclear cells was quantitated to measure the transcriptional inhibition of hIL-17 when treated with a compound of the invention.
Human peripheral blood mononuclear cells were plated (2.0×10^5 cells per well) in a 96-well plate in 45 μL OpTimizer T Cell expansion media containing 20 ng/ml IL-2 and penicillin/streptomycin. The cells were treated with the test compound (45 μL. at 2× concentration), and then the cells were incubated at 37° C. for 1 h before addition of 10× stock OKT3 antibody at 10 ug/ml in media. Cells were incubated at 37° C. for 3 h before the cells were harvested. At time of harvest, cells were centrifuged (800 rpm, 5 min). Spent media was removed and cell lysis solution (70 μL) was added the cells in each well and incubated for 5-10 min at room temperature, to allow for complete cell lysis and detachment. mRNA was then prepared using the “mRNA Catcher PLUS plate” (Invitrogen), according to the protocol supplied. After the last wash, as much wash buffer as possible was aspirated without allowing the wells to dry. Elution buffer (E3, 70 μL) was then added to each well. mRNA was then eluted by incubating the mRNA Catcher PLUS plate with Elution Buffer for 5 min at 68° C. and then immediately placing the plate on ice.
The eluted mRNA isolated was then used in a one-step quantitative real-time PCR reaction, using components of the Ultra Sense Kit together with Applied Biosystems primer-probe mixes. Real-time PCR data was analyzed, normalizing the Ct values for hIL-17 to an internal control, prior to determining the fold induction of each unknown sample, relative to the control.

T1 sequence (P25440 344-453 limits assumed): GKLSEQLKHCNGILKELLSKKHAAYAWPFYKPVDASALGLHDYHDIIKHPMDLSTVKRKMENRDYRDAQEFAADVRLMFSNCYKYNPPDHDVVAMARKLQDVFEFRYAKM

Cc1noc(C)c1-c1ccc(=O)n(Cc2ccccc2)c1 [Example 56, 1-Benzyl-5-(3,5-dimethylisoxazol-4-yl)pyridin-2(1H)-one]
Active: FRET activity (IC50 <30 μM) BRD2(2) [1] | FRET activity (IC50 <30 μM) BRD4(1) [2] | MCP-1 activity (IC50 < 30 μM) (hMCP-1 mRNA) | In vivo activity (IL-6 and IL-17 cytokines)

Cc1noc(C)c1-c1cc(N)c(=O)n(Cc2ccccc2)c1 [Example 73, 3-Amino-1-benzyl-5-(3,5-dimethylisoxazol-4-yl)pyridin-2(1H)-one]
Active: FRET activity (IC50 <30 μM) BRD2(2) [1] | FRET activity (IC50 <30 μM) BRD4(1) [2] | MCP-1 activity (IC50 < 30 μM) (hMCP-1 mRNA)

Cc1noc(C)c1-c1ccc(=O)n(Cc2ccc(Cl)cc2)c1 [Example 128, 1-(4-Chlorobenzyl)-5-(3,5-dimethylisoxazol-4-yl)pyridin-2(1H)-one]
Active: FRET activity (IC50 <30 μM) BRD2(2) [1] | FRET activity (IC50 <30 μM) BRD4(1) [2] | MCP-1 activity (IC50 < 30 μM) (hMCP-1 mRNA) | In vivo activity (IL-6 and IL-17 cytokines) | IL-17 activity (IC50 < 30 μM) (hIL-17 mRNA)

Cc1noc(C)c1-c1ccc(=O)n([C@H](C)c2ccccc2)c1 [Example 134, (R)-5-(3,5-Dimethylisoxazol-4-yl)-1-(1-phenylethyl)pyridin-2(1H)-one]
Active: FRET activity (IC50 <30 μM) BRD2(2) [1] | FRET activity (IC50 <30 μM) BRD4(1) [2] | MCP-1 activity (IC50 < 30 μM) (hMCP-1 mRNA)

Cc1noc(C)c1-c1cc(N)c(=O)n(Cc2ccc(F)cc2)c1 [Example 180, 3-amino-5-(3,5-dimethylisoxazol-4-yl)-1-(4-fluorobenzyl)pyridin-2(1H)-one]
Active: FRET activity (IC50 <30 μM) BRD4(1) [2] | IL-17 activity (IC50 < 30 μM) (hIL-17 mRNA)

Cc1noc(C)c1-c1cc(N)c(=O)n(Cc2ccsc2)c1 [Example 219, 3-amino-5-(3,5-dimethylisoxazol-4-yl)-1-(thiophen-3-ylmethyl)pyridin-2(1H)-one]
Active: FRET activity (IC50 <30 μM) BRD4(1) [2] | IL-17 activity (IC50 < 30 μM) (hIL-17 mRNA)

Cc1noc(C)c1-c1cc(N)c(=O)n(Cc2ccc(Br)cc2)c1 [Example 241, 3-Amino-1-(4-bromobenzyl)-5-(3,5-dimethylisoxazol-4-yl)pyridin-2(1H)-one]
Active: FRET activity (IC50 <30 μM) BRD4(1) [2] | IL-17 activity (IC50 < 30 μM) (hIL-17 mRNA)
